From patent publication US12071436B2, “Anti-parasitic compounds and uses thereof” (Memorial Sloan-Kettering Cancer Center, priority 2016, dated 2024)
Read-outs that look alike come from different tables or passages of the source.

Tests used:
P. falciparum Dd2 = experiment: Anti-plasmodial growth inhibition, SYBR green I-based DNA quantification; type: cell-based; conditions: Plasmodium falciparum, 72 h incubation, n=3
Experimental: (§1) Select compounds described herein were evaluated for structure-activity analyses for anti-plasmodial activity in vitro. For Dd2 EC50 (M), calculations were for n=3. For HepG2 EC50 (M), calculations were for n=1. For the human microsomal stability determination, t was 60 minutes.
Different dilutions of the compound in RPMI 1640 (Life Technologies) from a stock of 10 mM in dimethyl sulfoxide (DMSO) were added to the culture at a 1% parasitemia and 2% hematocrit in 96-well black plates (Santa Cruz Biotechnology). Maximum DMSO concentration in the culture never exceeded 0.25%. Chloroquine at 1 μM was used as a positive control to determine the baseline value. Following 72 h incubation at 37° C., the ability of the compounds to inhibit growth of the parasite was determined by a SYBR green I-based DNA quantification assay (See Bennett et al., 2004, Chemother. 48, 1807-1810; see also Johnson et al., 2007, Antimicrob. Agents. Chemother. 51, 1926-1933; Smilkstein et al., 2004, Antimicrob. Agents. Chemother. 48, 1803-1806). EC50 was calculated (n=3) from a dose response curve that was generated from a concentration range of 0-20 μM using GraphPad Prism v5.0.

[1] = system: HepG2 human hepatoma cells; experiment: HepG2 cytotoxicity, MTS cell proliferation assay; type: cell-based; conditions: 48 h, n=1
Experimental: as §1
Selected compounds were evaluated for cytotoxicity using HepG2 human hepatoma cells. A 384-well clear bottom plate was seeded with 2,500 cells/well and incubated for 24 h. Serial dilutions of the compound (were added to the plate and plates were incubated for an additional 48 h. Viability of cells were assessed by MTS [(3-(4,5-dimethylthiazol-2-yl)-5-(3-carboxymethoxyphenyl)-2-(4-sulfophenyl)-2H-tetrazolium) cell proliferation assay (CellTiter 96® Aqueous non-radioactive cell proliferation assay, Promega) (See Cory et al., Cancer Communications, 3, 1991, p. 207-212).

[2] = Plasma pharmacokinetics and liver distribution study in female BALB/c mice; type: in vivo, mouse; conditions: 100 mg/kg, female BALB/c mice; for Tmax: mouse, plasma, read-out: Tmax (plasma)
Experimental: A plasma pharmacokinetics and liver distribution study of selected compounds, including Pyrrolopyridine-008 (2015-foleyc-216), Pyrrolopyridine-D20-ent (2015-foleyc-217), and Pyrrolopyridine-M03 (2015-foleyc-218), in female BALB/c mice was conducted following a single intraperitoneal and oral administration. […] The blood samples were collected from a set of […] mice at each time point in labeled micro centrifuge tube containing K2EDTA as anticoagulant. Plasma samples were separated by centrifugation at 4000 rpm for 10 min and stored below −70° C. until bioanalysis. After collection of blood sample, animals were humanely euthanized by carbon dioxide asphyxiation to collect liver from Group 1 and Group 2 at all the time points. The collected tissues were rinsed in PBS and were homogenized with nine times of liver weight in ice cold phosphate buffer saline (pH 7.4) and stored below −70° C. until bio-analysis. Total homogenate volume was ten times the tissue weight. All samples were processed for analysis by protein precipitation using acetonitrile and analyzed with fit-for-purpose LC-MS/MS method (LLOQ: 2.01 ng/mL for plasma and 50.30 ng/g for liver). Pharmacokinetic parameters were calculated using the non-compartmental analysis tool of Phoenix WinNonlin® (Version 6.3).

[3] = system: Trypanosoma cruzi parasites; experiment: Trypanosoma cruzi in vitro IC50 (structure-activity analyses); type: cell-based; conditions: infection with Trypanosoma cruzi parasites for 72 hours and treatment with the compound for 72 hours
Experimental: Select compounds described herein were evaluated for structure-activity analyses in vitro.

Cytotoxicity (Table 1) = type: cell-based
[4] = ip, single intraperitoneal dose

## CC(C)(C)[S@@+]([O-])N1Cc2cc(C(=O)NCc3ccc4c(c3)OCO4)nc(-c3ccccc3)c2[C@H]1CCO [2015-foleyc-217, (R)-N-(benzo[d][1,3]dioxol-5-ylmethyl)-2-((R)-tert-butylsulfinyl)-3-(2-hydroxyethyl)-4-phenyl-2,3-dihydro-1H-pyrrolo[3,4-c]pyridine-6-carboxamide]
P. falciparum Dd2
  EC50: 2.19 ± 0.32 µM
[1]
  EC50: 63 µM
[2]; [4]
  Tmax: 60 min
[2]; single oral dose
  Tmax: 30 min
  plasma concentrations quantifiable till: 12 h
[2]; single intraperitoneal dose
  plasma concentrations quantifiable till: 12 h

## CC(C)(C)[S@@+]([O-])N1Cc2cc(C(=O)NCc3ccccc3F)nc(-c3ccccc3)c2[C@H]1CCO [2015-foleyc-218, (R)-2-((R)-tert-butylsulfinyl)-N-(2-fluorobenzyl)-3-(2-hydroxyethyl)-4-phenyl-2,3-dihydro-1H-pyrrolo[3,4-c]pyridine-6-carboxamide]
P. falciparum Dd2
  EC50: 1.45 ± 0.28 µM
[1]
  EC50: > 100 µM
[2]; [4]
  Tmax: 60 min
[2]; single oral dose
  Tmax: 30 min
  plasma concentrations quantifiable till: 12 h
[2]; single intraperitoneal dose
  plasma concentrations quantifiable till: 12 h

## CC(C)NC(=O)N1Cc2cc(C(N)=O)nc(-c3cccc(-c4cc5ccccc5o4)c3)c2[C@H]1CCO [2015-foleyc-248, (R)-4-(3-(benzofuran-2-yl)phenyl)-3-(2-hydroxyethyl)-N^2-isopropyl-1,3-dihydro-2H-pyrrolo[3,4-c]pyridine-2,6-dicarboxamide]
P. falciparum Dd2
  EC50: > 25 µM
[1]
  EC50: > 100 µM

## CC(C)NC(=O)N1Cc2cc(C(=O)NCc3ccc4c(c3)OCO4)nc(-c3cccc(-c4cccnc4)c3)c2[C@H]1CCO [2015-foleyc-253, (R)-N^6-(benzo[d][1,3]dioxol-5-ylmethyl)-3-(2-hydroxyethyl)-N^2-isopropyl-4-(3-(pyridin-3-yl)phenyl)-1,3-dihydro-2H-pyrrolo[3,4-c]pyridine-2,6-dicarboxamide]
P. falciparum Dd2
  EC50: 5.73 ± 0.33 µM
[1]
  EC50: 62 µM

## CC(C)NC(=O)N1Cc2cc(C(=O)NCc3ccccc3F)nc(-c3cccc(-c4cccnc4)c3)c2[C@H]1CCO [2015-foleyc-254, (R)-N^6-(2-fluorobenzyl)-3-(2-hydroxyethyl)-N^2-isopropyl-4-(3-(pyridin-3-yl)phenyl)-1,3-dihydro-2H-pyrrolo[3,4-c]pyridine-2,6-dicarboxamide]
P. falciparum Dd2
  EC50: 9.95 ± 0.89 µM
[1]
  EC50: 71 µM

## CC(C)NC(=O)N1Cc2cc(C(=O)NCC(F)(F)F)nc(-c3cccc(-c4cccnc4)c3)c2[C@H]1CCO [2015-foleyc-255, (R)-3-(2-hydroxyethyl)-N2-isopropyl-4-(3-(pyridin-3-yl)phenyl)-N6-(2,2,2-trifluoroethyl)-1,3-dihydro-2H-pyrrolo[3,4-c]pyridine-2,6-dicarboxamide]
P. falciparum Dd2
  EC50: 15.5 ± 0.75 µM
[1]
  EC50: > 100 µM

## CC(C)NC(=O)N1Cc2cc(C(=O)NCC(F)(F)F)nc(-c3ccccc3)c2[C@H]1CCO [2015-foleyc-267, (R)-3-(2-hydroxyethyl)-N^2-isopropyl-4-phenyl-N^6-(2,2,2-trifluoroethyl)-1,3-dihydro-2H-pyrrolo[3,4-c]pyridine-2,6-dicarboxamide]
P. falciparum Dd2
  EC50: 3.5 ± 0.97 µM
[1]
  EC50: > 100 µM

## CC(C)NC(=O)N1Cc2cc(C(=O)NCc3ccccc3F)nc(-c3cccc(-c4cc5ccccc5o4)c3)c2[C@H]1CCO [2015-foleyc-268, (R)-4-(3-(benzofuran-2-yl)phenyl)-N^6-(2-fluorobenzyl)-3-(2-hydroxyethyl)-N^2-isopropyl-1,3-dihydro-2H-pyrrolo[3,4-c]pyridine-2,6-dicarboxamide]
P. falciparum Dd2
  EC50: 10.2 ± 0.94 µM
[1]
  EC50: > 100 µM

## CCOC(=O)c1cc2c(c(-c3cccc(C#CCN(C)C)c3)n1)CN([S@+]([O-])C(C)(C)C)C2 [Compound 49, Ethyl (R)-2-(tert-butylsulfinyl)-4-(3-(3-(dimethylamino)prop-1-yn-1-yl)phenyl)-2,3-dihydro-1H-pyrrolo[3,4-c]pyridine-6-carboxylate]
[3]
  IC50: 862 nM
Cytotoxicity (Table 1)
  Cytotoxicity: >10 µM
